# Patent publication US8609847B2, “Dihydroquinolinone derivatives” (Taisho Pharmaceutical Co., Ltd, priority 2009, dated 2013)
# Legend:
# [1] = target: T1, human H3 receptor (Homo sapiens, UniProt Q9Y5N1); test: [35S]GTP-γ-S Binding Test; format: biochemical; conditions: 50% inhibition of [35S]GTP-γ-S (0.2 nM) binding in presence of 10 nM R(−)-α-methylhistamine; human H3 receptor membrane preparation
# T1 construct: purchased Perkin Elmer ES-392-M400UA; host or cells: CHO-K1 cells (recombinant expression), membrane preparation
# T1 sequence (Q9Y5N1 whole entry): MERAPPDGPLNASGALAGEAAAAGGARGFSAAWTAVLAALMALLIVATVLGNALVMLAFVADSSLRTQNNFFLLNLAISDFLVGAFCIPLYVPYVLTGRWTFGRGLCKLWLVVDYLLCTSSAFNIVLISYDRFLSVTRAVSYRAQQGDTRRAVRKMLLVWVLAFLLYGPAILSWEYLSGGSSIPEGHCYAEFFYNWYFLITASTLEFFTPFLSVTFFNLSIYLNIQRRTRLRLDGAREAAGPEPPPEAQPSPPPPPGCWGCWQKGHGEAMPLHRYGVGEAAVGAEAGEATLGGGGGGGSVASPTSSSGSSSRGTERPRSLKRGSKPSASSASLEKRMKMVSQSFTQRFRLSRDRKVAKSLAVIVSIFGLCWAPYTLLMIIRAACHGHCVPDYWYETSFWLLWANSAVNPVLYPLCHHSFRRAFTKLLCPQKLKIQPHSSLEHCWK
# Experimental: The same human H3 receptor membrane preparation as used in Test Example 1 (7.5 μg protein/200 μl), 3 μM GDP, 10 nM R(−)-α-methylhistamine and a test compound were reacted at 30° C. for 20 minutes. After completion of the reaction, [^35S]GTP-γ-S (0.2 nM) was added and reacted for an additional 30 minutes. After completion of the reaction, the reaction mixture was subjected to suction filtration through a glass filter (GF/C). The glass filter was washed three times with 20 mM HEPES washing solution (pH 7.4) containing 100 mM sodium chloride and 3 mM magnesium chloride. After washing, the glass filter was dried and a scintillator was added thereto, followed by measurement of radioactivity on the filter using a liquid scintillation counter. Binding of [^35S]GTP-γ-S in the absence of R(−)-α-methylhistamine was defined as non-specific binding, and the difference between total binding in the presence of R(−)-α-methylhistamine and non-specific binding was defined as specific binding of [^35S]GTP-γ-S. Fixed concentrations of [^35S]GTP-γ-S (0.2 nM) and R(−)-α-methylhistamine (10 nM) were reacted under the above conditions with each test drug at various concentrations to obtain an inhibition curve. The inhibition curve was used to determine the concentration (IC50) of each test drug required for 50% inhibition of [^35S]GTP-γ-S binding.
# [2] = target: T1, human H3 receptor; test: H3 Receptor Binding Test; conditions: 50% inhibition of R(−)-α-methyl[3H]histamine (1 nM) binding; membrane preparation of human H3 receptor-expressing CHO-K1 cells
# Experimental: A membrane preparation of human H3 receptor-expressing CHO-K1 cells (Perkin Elmer, ES-392-M400UA, 15 μg protein/200 μl), R(−)-α-methyl[^3H]histamine (Amersham, TRK-1017, specific activity: 1.74 TBq/mmol, 1 nM) and a test drug were reacted at room temperature for 1 hour. After completion of the reaction, the reaction mixture was subjected to suction filtration through a 0.3% polyethyleneimine-treated glass filter (GF/C). The glass filter was washed five times with 50 mM Tris-HCl washing solution (pH 7.4) containing 5 mM EDTA. After washing, the glass filter was dried and a scintillator was added thereto, followed by measurement of radioactivity on the filter using a liquid scintillation counter.
# Binding of R(−)-α-methyl[^3H]histamine in the presence of 10 μM R(−)-α-methylhistamine was defined as non-specific binding, and the difference between total binding and non-specific binding of R(−)-α-methyl[^3H]histamine was defined as specific binding of R(−)-α-methyl[^3H]histamine. A fixed concentration (1 nM) of R(−)-α-methyl[^3H]histamine was reacted under the above conditions with each test drug at various concentrations to obtain an inhibition curve. The inhibition curve was used to determine the concentration (IC50) of each test drug required for 50% inhibition of R(−)-α-methyl[^3H]histamine binding.
Structure (SMILES),IC50 [1],IC50 [2],melting point
"O=C1CCc2cc(OC3CCN(C4CCC4)CC3)ccc2N1c1cccc(F)c1 [Compound No. 69, 6-[(1-cyclobutylpiperidin-4-yl)oxy]-1-(3-fluorophenyl)-3,4-dihydroquinolin-2(1H)-one]",0.2 nM,0.65 nM,–
Cl.O=C1CCc2cc(OC3CCN(C4CCC4)CC3)ccc2N1c1ccc(F)cc1,–,–,> 250 °C
"O=C1CCc2cc(OC3CCN(C4CCC4)CC3)ccc2N1c1ccc(F)cc1 [Compound No. 60, 6-[(1-cyclobutylpiperidin-4-yl)oxy]-1-(4-fluorophenyl)-3,4-dihydroquinolin-2(1H)-one]",0.23 nM,0.8 nM,–
"N#Cc1ccc(N2C(=O)CCc3cc(OC4CCN(C5CCC5)CC4)ccc32)cc1 [Compound No. 73, 4-{6-[(1-cyclobutylpiperidin-4-yl)oxy]-2-oxo-3,4-dihydroquinolin-1(2H)-yl}benzonitrile]",0.23 nM,1 nM,–
"O=C1CCc2cc(OC3CCN(C4CCC4)CC3)ccc2N1c1cnc2ccccc2c1 [Compound No. 58, 6-[(1-cyclobutylpiperidin-4-yl)oxy]-3,4-dihydro-2H-1,3′-biquinolin-2-one]",0.4 nM,1.6 nM,–
"O=C1CCc2cc(OC3CCN(C4CCC4)CC3)ccc2N1c1cncc(F)c1 [Compound No. 71, 6-[(1-cyclobutylpiperidin-4-yl)oxy]-1-(5-fluoropyridin-3-yl)-3,4-dihydroquinolin-2(1H)-one]",0.26 nM,1.4 nM,–
"C[C@@H]1CCCN1CCCOc1ccc2c(c1)CCC(=O)N2c1ccn(C)c(=O)c1 [Compound No. 54, 1-(1-methyl-2-oxo-1,2-dihydropyridin-4-yl)-6-{3-[(2R)-2-methylpyrrolidin-1-yl]propoxy}-3,4-dihydroquinolin-2(1H)-one]",–,4.8 nM,–
"COc1ccc(N2C(=O)CCc3cc(OCCCN4CCC[C@H]4C)ccc32)cn1 [Compound No. 48, 1-(6-methoxypyridin-3-yl)-6-{3-[(2R)-2-methylpyrrolidin-1-yl]propoxy}-3,4-dihydroquinolin-2(1H)-one]",–,8.7 nM,–
"CCN(CC)CCCOc1ccc2c(c1)CCC(=O)N2c1ccc(F)cc1 [Compound No. 83, 6-[3-(diethylamino)propoxy]-1-(4-fluorophenyl)-3,4-dihydroquinolin-2(1H)-one]",–,13 nM,–
"COc1ccc(N2C(=O)CCc3cc(OC4CCN(C5CCC5)CC4)ccc32)cn1 [Compound No. 67, 6-[(1-cyclobutylpiperidin-4-yl)oxy]-1-(6-methoxypyridin-3-yl)-3,4-dihydroquinolin-2(1H)-one]",–,2.7 nM,–
"C[C@@H]1CCCN1CCCOc1ccc2c(c1)CCC(=O)N2c1ccc2c(ccn2C(=O)OC(C)(C)C)c1 [Compound No. 41, tert-butyl 5-[6-{3-[(2R)-2-methylpyrrolidin-1-yl]propoxy}-2-oxo-3,4-dihydroquinolin-1(2H)-yl]-1H-indole-1-carboxylate]",–,53 nM,–
"O=C1CCc2cc(OC3CCN(C4CCC4)CC3)ccc2N1c1ccccc1 [Compound No. 72, 6-[(1-cyclobutylpiperidin-4-yl)oxy]-1-phenyl-3,4-dihydroquinolin-2(1H)-one]",0.16 nM,0.6 nM,–
"C[C@@H]1CCCN1CCCOc1ccc2c(c1)CCC(=O)N2c1ccc(N2CCOCC2)cc1 [Compound No. 17, 6-{3-[(2R)-2-methylpyrrolidin-1-yl]propoxy}-1-[4-(morpholin-4-yl)phenyl]-3,4-dihydroquinolin-2(1H)-one]",–,41 nM,–

# Continued, values first:
IC50 [1],IC50 [2],melting point,Structure (SMILES)
0.21 nM,0.68 nM,–,"C[C@@H]1CCCN1CCCOc1ccc2c(c1)CCC(=O)N2c1ccc(CN(C)C)cc1 [Compound No. 12, 1-{4-[(dimethylamino)methyl]phenyl}-6-{3-[(2R)-2-methylpyrrolidin-1-yl]propoxy}-3,4-dihydroquinolin-2(1H)-one]"
0.62 nM,8.3 nM,–,"C[C@@H]1CCCN1CCCOc1ccc2c(c1)CCC(=O)N2c1ccc(C(=O)N(C)C)cc1 [Compound No. 13, N,N-dimethyl-4-[6-{3-[(2R)-2-methylpyrrolidin-1-yl]propoxy}-2-oxo-3,4-dihydroquinolin-1(2H)-yl]benzamide]"
0.28 nM,1.1 nM,–,"C[C@@H]1CCCN1CCCOc1ccc2c(c1)CCC(=O)N2c1ccc(F)cc1 [Compound No. 6, 1-(4-fluorophenyl)-6-{3-[(2R)-2-methylpyrrolidin-1-yl]propoxy}-3,4-dihydroquinolin-2(1H)-one]"
–,2.7 nM,–,"COc1ccc(N2C(=O)CCc3cc(OCCCN4CCC[C@H]4C)ccc32)cc1 [Compound No. 4, 1-(4-methoxyphenyl)-6-{3-[(2R)-2-methylpyrrolidin-1-yl]propoxy}-3,4-dihydroquinolin-2(1H)-one]"
–,1.6 nM,–,"C[C@@H]1CCCN1CCCOc1ccc2c(c1)CCC(=O)N2c1ccc(C(F)(F)F)cc1 [Compound No. 8, 6-{3-[(2R)-2-methylpyrrolidin-1-yl]propoxy}-1-[4-(trifluoromethyl)phenyl]-3,4-dihydroquinolin-2(1H)-one]"
–,2.9 nM,–,"Cc1ccc(N2C(=O)CCc3cc(OCCCN4CCC[C@H]4C)ccc32)cn1 [Compound No. 47, 1-(6-methylpyridin-3-yl)-6-{3-[(2R)-2-methylpyrrolidin-1-yl]propoxy}-3,4-dihydroquinolin-2(1H)-one]"
